Molecules are shown by their SMILES. Some results are limits rather than exact numbers.

The assay deals with MAPK14 (human) (UniProt Q16539). Put plainly: Enzyme Assay.
Sequence of MAPK14 (human) (Q16539 whole entry, looked up): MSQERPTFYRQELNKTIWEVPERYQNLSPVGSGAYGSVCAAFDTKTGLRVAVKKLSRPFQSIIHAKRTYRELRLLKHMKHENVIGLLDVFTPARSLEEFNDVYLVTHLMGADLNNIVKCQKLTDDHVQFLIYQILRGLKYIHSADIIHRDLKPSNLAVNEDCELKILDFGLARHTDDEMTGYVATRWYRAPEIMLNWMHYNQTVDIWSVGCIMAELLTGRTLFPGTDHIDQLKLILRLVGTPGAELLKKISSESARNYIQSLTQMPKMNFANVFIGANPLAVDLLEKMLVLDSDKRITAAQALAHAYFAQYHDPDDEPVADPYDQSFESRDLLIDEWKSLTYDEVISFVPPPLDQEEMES
The molecule `COCC(=O)Nc1cc(O[C@@H]2CC[C@H](NC(=O)Nc3cc(C(C)(C)C)nn3-c3ccc(C)cc3)c3ccccc32)ccn1` displayed an IC50 of under 0.01 µM.

Molecule `Cc1ccc(-n2nc(C(C)(C)C)cc2NC(=O)N[C@H]2CC[C@@H](Oc3ccc4nnc(N5CCC[C@@H]5CO)n4c3)c3ccccc32)cc1` displayed an IC50 of under 0.01 µM.

In turn, `Cc1ccc(-n2nc(C(C)(C)C)cc2NC(=O)N[C@H]2CC[C@@H](Oc3ccc4nnc(N5CCCN(C)CC5)n4c3)c3ccccc32)cc1` displayed an IC50 of under 0.01 µM.

Take `C[C@H]1CCCCN1c1nnc2ccc(O[C@@H]3CC[C@H](NC(=O)Nc4cc(C(C)(C)C)nn4-c4cccc(CCN5CCCOCC5)c4)c4ccccc43)cn12`: the IC50 was under 0.01 µM.

The molecule `Cc1ccc(-n2nc(C(C)(C)C)cc2NC(=O)N[C@H]2CC[C@@H](Oc3ccc4nnc(N5CCN(C)CC5)n4c3)c3ccccc32)cc1` showed an IC50 of under 0.01 µM.

The molecule `Cc1ccc(-n2nc(C(C)(C)C)cc2NC(=O)N[C@H]2CC[C@@H](Oc3ccc4nnc(-c5ccc(CN6CCOCC6)nc5)n4c3)c3ccccc32)cc1` yielded an IC50 of 0.01 to 0.1 µM.

Molecule `C[C@H]1CCCCN1c1nnc2ccc(O[C@@H]3CC[C@H](NC(=O)Nc4cc(C(C)(C)C)nn4-c4cccc(CN5CCN(C)CC5)c4)c4ccccc43)cn12` came in with an IC50 of under 0.01 µM.

Consider `Cc1ccc(-n2nc(C(C)(C)C)cc2NC(=O)N[C@H]2CC[C@@H](Oc3ccc4nnc(N5[C@H](C)CCC[C@@H]5C)n4c3)c3ccccc32)cc1`, for which the IC50 was under 0.01 µM.

In turn, `C[C@H]1CCCCN1c1nnc2ccc(O[C@@H]3CC[C@H](NC(=O)Nc4cc(C(C)(C)C)nn4-c4cccc(OCCN5CCCCC5)c4)c4ccccc43)cn12` gave an IC50 of under 0.01 µM.

Take `CN(C)CCOc1cccc(-n2nc(C(C)(C)C)cc2NC(=O)N[C@H]2CC[C@@H](Oc3ccc4nnc(N5CCCCC56CC6)n4c3)c3ccccc32)c1`: the IC50 is under 0.01 µM.

The molecule `Cc1ccc(-n2nc(C(C)(C)C)cc2NC(=O)N[C@H]2CC[C@@H](Oc3ccc4nnc(-c5ccc(CN6CCOCC6)cc5)n4c3)c3ccccc32)cc1` gave an IC50 of under 0.01 µM.

In turn, `COCCN(C)Cc1cccc(-n2nc(C(C)(C)C)cc2NC(=O)N[C@H]2CC[C@@H](Oc3ccc4nnc(N5CCCC[C@@H]5C)n4c3)c3ccccc32)c1` registered an IC50 of under 0.01 µM.

`CC(C)(C)c1cc(NC(=O)N[C@H]2CC[C@@H](Oc3ccc4nnc(N5CCC(CO)CC5)n4c3)c3ccccc32)n(-c2ccc(CO)cc2)n1` returned an IC50 of under 0.01 µM.

`COC1CCN(Cc2cccc(-n3nc(C(C)(C)C)cc3NC(=O)N[C@H]3CC[C@@H](Oc4ccc5nnc(N6CCCC[C@@H]6C)n5c4)c4ccccc43)c2)CC1` came in with an IC50 of under 0.01 µM.

The molecule `C[C@@H]1CCC[C@H](C)N1c1nnc2ccc(O[C@@H]3CC[C@H](NC(=O)Nc4cc(C(C)(C)C)nn4CCO)c4ccccc43)cn12` registered an IC50 of under 0.01 µM.

Turning to `Cc1ccc(-n2nc(C(C)(C)C)cc2NC(=O)N[C@H]2CC[C@@H](Oc3ccc4nnc([C@@H]5CCCN(C)C5)n4c3)c3ccccc32)cc1`, the 50% inhibitory concentration (IC50) is under 0.01 µM.

The molecule `C[C@H]1CCCCN1c1nnc2ccc(O[C@@H]3CC[C@H](NC(=O)Nc4cc(C(C)(C)C)nn4-c4cccc(CN(C)C)c4)c4ccccc43)cn12` displayed an IC50 of under 0.01 µM.

With `C[C@H]1CCCCN1c1nnc2ccc(O[C@@H]3CC[C@H](NC(=O)Nc4cc(C(C)(C)C)nn4-c4cccc(OCCN5CCCN(C)CC5)c4)c4ccccc43)cn12`, the half-inhibitory concentration (IC50) is under 0.01 µM.

In the case of `Cc1ccc(-n2nc(C(C)(C)C)cc2NC(=O)N[C@H]2CC[C@@H](Oc3ccc4nnc(N5CCCOCC5)n4c3)c3ccccc32)cc1`, the IC50 was under 0.01 µM.

Molecule `C[C@H]1CCCCN1c1nnc2ccc(O[C@@H]3CC[C@H](NC(=O)Nc4cc(C(C)(C)C)nn4-c4cccc(OCCN5CCOCC5)c4)c4ccccc43)cn12` had an IC50 of under 0.01 µM.

`Cc1ccc(-n2nc(C(C)(C)C)cc2NC(=O)N[C@H]2CC[C@@H](Oc3ccc4nnc(N5CCCCC5)n4c3)c3ccccc32)cn1` had an IC50 of under 0.01 µM.

Molecule `CC(C)(C)c1cc(NC(=O)N[C@H]2CC[C@@H](Oc3ccc4nnc(N5CCCCC5)n4c3)c3ccccc32)n(-c2ccc(C#N)cc2)n1` showed an IC50 of under 0.01 µM.

Regarding `Cc1ccc(-n2nc(C(C)(C)C)cc2NC(=O)N[C@H]2CC[C@@H](Oc3ccc4nnc([C@@H]5CCCN5)n4c3)c3ccccc32)cc1`, the IC50 is under 0.01 µM.

In the case of `Cc1ccc(-n2nc(C(C)(C)C)cc2NC(=O)N[C@H]2CC[C@@H](Oc3ccc4nnc(N5CCC[C@H](CO)C5)n4c3)c3ccccc32)cc1`, the IC50 was under 0.01 µM.

The molecule `C[C@H]1CCCCN1c1nnc2ccc(O[C@@H]3CC[C@H](NC(=O)Nc4cc(C(C)(C)C)nn4-c4ccnc(N(C)CCN(C)C)n4)c4ccccc43)cn12` had an IC50 of under 0.01 µM.

`Cc1ccc(-n2nc(C(C)(C)C)cc2NC(=O)N[C@H]2CC[C@@H](Oc3ccc4nnc([C@H]5CCCN5)n4c3)c3ccccc32)cc1` displayed an IC50 of under 0.01 µM.

As to `Cc1ccc(-n2nc(C(C)(C)C)cc2NC(=O)N[C@H]2CC[C@@H](Oc3ccc(C#N)nc3)c3ccccc32)cc1`, the IC50 was under 0.01 µM.

In turn, `CC(C)(C)c1cc(NC(=O)N[C@H]2CC[C@@H](Oc3ccc4nnc(N5CCCCC5)n4c3)c3ccccc32)n(-c2cnn(CCN3CCOCC3)c2)n1` had an IC50 of under 0.01 µM.

`C[C@H]1CCCCN1c1nnc2ccc(O[C@@H]3CC[C@H](NC(=O)Nc4cc(C(C)(C)C)nn4CCN4CCN(C)CC4)c4ccccc43)cn12`: the IC50 was under 0.01 µM.

The molecule `Cc1ccc(-n2nc(C(C)(C)C)cc2NC(=O)N[C@H]2CC[C@@H](Oc3ccc4nnc([C@@H]5CCCN5C)n4c3)c3ccccc32)cc1` had an IC50 of under 0.01 µM.

As for `C[C@H]1CCCCN1c1nnc2ccc(O[C@@H]3CC[C@H](NC(=O)Nc4cc(C(C)(C)C)nn4C)c4ccccc43)cn12`, the IC50 was under 0.01 µM.

`Cc1ccc(-n2nc(C(C)(C)C)cc2NC(=O)N[C@H]2CC[C@@H](Oc3ccc4nnc(CN5CCNCC5)n4c3)c3ccccc32)cc1` had an IC50 of under 0.01 µM.

Regarding `CN(C)CCn1cc(-n2nc(C(C)(C)C)cc2NC(=O)N[C@H]2CC[C@@H](Oc3ccc4nnc(N5CCCCC5)n4c3)c3ccccc32)cn1`, the IC50 is under 0.01 µM.

`CN1CCC[C@H]1c1nnc2ccc(O[C@@H]3CC[C@H](NC(=O)Nc4cc(C(C)(C)C)nn4-c4cccc(OCCO)c4)c4ccccc43)cn12` registered an IC50 of under 0.01 µM.

`CN1CCN(Cc2ccc(-n3nc(C(C)(C)C)cc3NC(=O)N[C@H]3CC[C@@H](Oc4ccc5nnc(N6CCCCC6)n5c4)c4ccccc43)cc2)CC1` had an IC50 of under 0.01 µM.

Molecule `C[C@H]1CCCCN1c1nnc2ccc(O[C@@H]3CC[C@H](NC(=O)Nc4cc(C(C)(C)C)nn4CCN(C)C)c4ccccc43)cn12` displayed an IC50 of under 0.01 µM.

Consider `C[C@H]1COCCN1c1nnc2ccc(O[C@@H]3CC[C@H](NC(=O)Nc4cc(C(C)(C)C)nn4-c4cccc(OCCN(C)C)c4)c4ccccc43)cn12`, for which the IC50 is under 0.01 µM.

The molecule `Cc1ccc(-n2nc(C(C)(C)C)cc2NC(=O)N[C@H]2CC[C@@H](Oc3ccc4nnc(N5CCC(O)CC5)n4c3)c3ccccc32)cc1` yielded an IC50 of under 0.01 µM.

The molecule `CN(C)CCCn1cc(-n2nc(C(C)(C)C)cc2NC(=O)N[C@H]2CC[C@@H](Oc3ccc4nnc(N5CCCCC5)n4c3)c3ccccc32)cn1` displayed an IC50 of under 0.01 µM.

`C[C@H]1CCCCN1c1nnc2ccc(O[C@@H]3CC[C@H](NC(=O)Nc4cc(C(C)(C)C)nn4-c4cccc(OCCN5C6CCC5COC6)c4)c4ccccc43)cn12` displayed an IC50 of under 0.01 µM.

The molecule `Cc1ccc(-n2nc(C(C)(C)C)cc2NC(=O)N[C@H]2CC[C@@H](Oc3ccc4nnc(C(C)(C)N5CCCC5)n4c3)c3ccccc32)cc1` yielded an IC50 of under 0.01 µM.

As for `C[C@H]1CCCCN1c1nnc2ccc(O[C@@H]3CC[C@H](NC(=O)Nc4cc(C(C)(C)C)on4)c4ccccc43)cn12`, the IC50 was under 0.01 µM.

`Cc1ccc(-n2nc(C(C)(C)C)cc2NC(=O)N[C@H]2CC[C@@H](Oc3ccc4nnc(N5CC[C@H](CO)C5)n4c3)c3ccccc32)cc1` registered an IC50 of under 0.01 µM.

For the molecule `CC(C)(C)c1cc(NC(=O)N[C@H]2CC[C@@H](Oc3ccc4nnc(N5CCCCC5)n4c3)c3ccccc32)n(-c2cccc(CN3CCCCC3)c2)n1`, the IC50 was under 0.01 µM.

Regarding `C[C@H]1COCCN1c1nnc2ccc(O[C@@H]3CC[C@H](NC(=O)Nc4cc(C(C)(C)C)nn4CCN4CCOCC4)c4ccccc43)cn12`, the IC50 was under 0.01 µM.

In the case of `Cc1ccc(-n2nc(C(C)(C)C)cc2NC(=O)N[C@H]2CC[C@@H](Oc3ccc4nnc([C@@H]5CCCN5CCCO)n4c3)c3ccccc32)cc1`, the IC50 was under 0.01 µM.

Molecule `Cc1ccc(-n2nc(C(C)(C)C)cc2NC(=O)N[C@H]2CC[C@@H](Oc3ccc4nnc(C5(N(C)C)CCCC5)n4c3)c3ccccc32)cc1` gave an IC50 of under 0.01 µM.

The values are drawn from the Kinase Knowledgebase extract (Sharma et al. 2016).
